For 13 molecules, TGI and GI50 results are on record in PubChem BioAssay (NCI).

Holding throughout (test): NCI tumour cell line growth inhibition, 48 h
Experiment [1] deals with A498 renal.
The subject of experiment [2] is BT-549 breast.
The subject of experiment [3] is HCC-2998 colon.
In experiment [4] the test system is M14 melanoma.
Experiment [5] has as its system MCF7 breast.
Experiment [6] has as its system MDA-MB-231 breast.
The subject of experiment [7] is MDA-MB-435.
Experiment [8] relates to NCI-H226 lung.
The subject of experiment [9] is NCI/ADR-RES ovarian.
Experiment [10] concerns OVCAR-8 ovarian.
Experiment [11] deals with SR leukemia.
Experiment [12] concerns KM20L2 colon.
The test system of experiment [13] is RPMI-8226 leukemia.
Experiment [14] has as its system SNB-78 CNS.
Experiment [15] relates to XF 498 CNS.

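Five concentrations, 48 hours, 96-well plates. The concentration for 50% growth inhibition is given as GI50. TGI: total growth inhibition.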

For the molecule `CC1(C)[C@@H]2CC[C@]1(C)[C@H](OC(=O)/C=C/c1ccccc1)C2`, the TGI in [1] was determined as 32.3 µM; in [2] it was 48 µM; in experiment [3], 30.7 µM; in experiment [4], 70.8 µM; in experiment [5] it was 30.8 µM; in experiment [6], 35 µM. For the same molecule, the TGI is 77.7 µM in [7], 36.4 µM in [8], 37.1 µM in experiment [9] and 36.5 µM in [10].
For `CC(CC(N)C(=O)O)C(=O)O` (stereo not drawn), the TGI in [1], in experiment [2], in experiment [4], in experiment [6], in experiment [7] and in [8] was over 100 µM each time. The TGI in experiment [9], in experiment [10] and in experiment [11] was over 100 µM in each case.
As for `C=CCN1/C(=C(\C#N)c2nc3ccccc3[nH]2)Sc2c1nc[nH]c2=O`, the TGI in experiment [1], in experiment [3], in [12], in [4], in [10] and in experiment [13] was over 100 µM throughout. For the same molecule, the TGI in experiment [14], in [11] and in experiment [15] was over 100 µM each time.
Regarding `COc1cc(OC)cc(-c2ccc(-c3ccc(C(=N)N)cn3)o2)c1`, the GI50 was 1.22 µM in [1]; 1.55 µM in experiment [7]; 6.53 µM in experiment [9]; 1.92 µM in [13]; 1.73 µM in [11]. Moreover, the TGI was determined as 2.51 µM in experiment [1]; 2.99 µM in experiment [7]; 38.5 µM in [9]; 4.33 µM in experiment [13]; 3.96 µM in experiment [11].
Take `COc1nc2cccc(C(O)c3ccccc3)c2nc1-c1ccccc1` (stereo not drawn): the TGI in experiment [1] came to 11.7 µM; in [2] it was 46.3 µM; in experiment [4], 21.2 µM; in [5], 32 µM; in experiment [6], 31.9 µM; in experiment [7], 4.79 µM. Further, the TGI is 13.3 µM in experiment [8]; 15.9 µM in [9]; over 100 µM in experiment [10]; 10.8 µM in [13]; 12.4 µM in experiment [11].
Take `N#CC(N=Nc1ccccc1C(=O)O)C(N)=O` (stereo not drawn): the TGI in [2], in experiment [4], in experiment [6], in experiment [7], in [8] and in [9] was over 100 µM throughout. In addition, the TGI in [13] and in experiment [11] was over 100 µM each time.
For the molecule `Cc1[nH]c(=O)[nH]c(=O)c1/C=C/C(=O)O` (tested in a mixture with another compound), the TGI in [1], in experiment [3], in experiment [12], in experiment [5], in experiment [8] and in experiment [9] was over 625 µM throughout. Further, the TGI in experiment [10] is over 568 µM; in experiment [13], over 625 µM; in experiment [14], over 625 µM; in experiment [15], over 625 µM.
In the case of `OCC1COc2cc(Cl)c(Cl)cc2O1` (stereo not drawn), the TGI in experiment [1], in experiment [3], in [4], in experiment [5], in [6] and in experiment [7] was over 10 µM each time. In addition, the TGI in experiment [8], in experiment [9], in experiment [10], in experiment [13] and in [11] was over 10 µM each time.
For `CCC(C)C(N)C(=O)NC(CC(N)=O)C(=O)NC(CC(C)C)C(=O)NC(CCCCN)C(=O)NC(C)C(=O)NC(CC(C)C)C(=O)NC(C)C(=O)NC(C)C(=O)NC(CC(C)C)C(=O)NC(C)C(=O)NC(CCCCN)C(=O)NC(CCCCN)C(=O)NC(C(=O)NC(CC(C)C)C(N)=O)C(C)CC` (stereo not drawn), the TGI in experiment [1] is 32.5 µM; in [3] it was over 56.3 µM; in [12], over 58.6 µM; in experiment [4], 8.64 µM; in [8] it was 29 µM; in experiment [10], 34.3 µM. Moreover, the results for the TGI in experiment [14] and in [11] were 29.2 µM and 46.1 µM, respectively.
As for `O=c1[nH]nc(NCc2ccccc2)c2nnn(Cc3ccccc3)c12`, the TGI in experiment [2], in [3], in experiment [4], in experiment [5], in experiment [6] and in experiment [7] was over 100 µM in each case. The TGI in experiment [9], in [10], in experiment [13] and in experiment [11] was over 100 µM in each case.
For `NCCSc1cc(O)c2c(c1N)C(=O)c1ccccc1C2=O`, the TGI in experiment [1], in experiment [3], in experiment [12], in experiment [4], in experiment [10] and in experiment [14] was over 100 µM in each case. Moreover, the TGI amounted to 73.4 µM in experiment [11] and 49.5 µM in experiment [15].
Take `CSCC[C@@H]1C(=O)N(C)[C@H](C(C)(C)C)N1C(=O)c1ccccc1`: the TGI in [1], in experiment [3], in experiment [12], in experiment [5], in experiment [8] and in experiment [9] was over 100 µM throughout. In addition, the TGI in experiment [10], in [13], in [14] and in experiment [15] was over 100 µM in each case.
As for `COc1cc2c3cc1Oc1c(O)c(OC)cc4c1C(Cc1ccc(O)c(c1)Oc1ccc(cc1)CC3N(C)CC2)N(C)CC4` (stereo not drawn), the TGI came to 32.2 µM in experiment [1]; 13.6 µM in [3]; 17.4 µM in [12]; 7.8 µM in experiment [4]; 38.3 µM in experiment [8]; 28.4 µM in [10]. Also, the TGI in [13] is 84.4 µM; in [14], 50.7 µM; in [15], 33.5 µM.
